The text below walks through data of patent US8258114B2, “Modulation of glucose-6-phosphatase translocase expression” (Isis Pharmaceuticals, Inc., priority 2004, dated 2012).

Oligonucleotides are written 5' to 3', each unit as a sugar letter and its base; * is a phosphorothioate linkage, no mark a phosphodiester; rarer units and linkages stand in square brackets, end groups in braces. Plain capitals give the bases only. e = 2'-O-(2-methoxyethyl) (MOE); [5mC] = 5-methylcytosine; d = 2'-deoxy (DNA)

The data set deals with mouse glucose-6-phosphatase translocase mRNA. As to the kind of experiment: Antisense inhibition of mouse glucose-6-phosphatase translocase mRNA in primary mouse hepatocytes, 150 nM, LIPOFECTIN (Table 22). The note with it: real-time PCR. The class given is cell-based. As for the experimental part: Primary mouse hepatocytes were prepared from CD-1 mice purchased from Charles River Labs. Primary mouse hepatocytes were routinely cultured in Hepatocyte Attachment Media supplemented with 10% fetal bovine serum (Invitrogen Life Technologies, Carlsbad, Calif.), 250 nM dexamethasone, and 10 nM bovine insulin (Sigma-Aldrich, St. Louis, Mo.). Cells were seeded into 96-well plates (Falcon-Primaria #353872, BD Biosciences, Bedford, Mass.) at a density of approximately 4,000-6,000 cells/well for use in oligomeric compound transfection experiments.
When cells reached 65-75% confluency, they were treated with oligonucleotide. Oligonucleotide was mixed with LIPOFECTIN™ Invitrogen Life Technologies, Carlsbad, Calif.) in Opti-MEM™-1 reduced serum medium (Invitrogen Life Technologies, Carlsbad, Calif.) to achieve the desired concentration of oligonucleotide and a LIPOFECTIN™ concentration of 2.5 or 3 μg/mL per 100 nM oligonucleotide. This transfection mixture was incubated at room temperature for approximately 0.5 hours. For cells grown in 96-well plates, wells were washed once with 100 μL OPTI-MEM™-1 and then treated with 130 μL of the transfection mixture. Cells grown in 24-well plates or other standard tissue culture plates are treated similarly, using appropriate volumes of medium and oligonucleotide. Cells are treated and data are obtained in duplicate or triplicate. After approximately 4-7 hours of treatment at 37° C., the medium containing the transfection mixture was replaced with fresh culture medium. Cells were harvested 16-24 hours after oligonucleotide treatment.
Quantitation of glucose 6-phosphatase translocase mRNA levels was accomplished by real-time quantitative PCR using the ABI PRISM™ 7600, 7700, or 7900 Sequence Detection System (PE-Applied Biosystems, Foster City, Calif.) according to manufacturer's instructions.
Prior to quantitative PCR analysis, primer-probe sets specific to the target gene being measured were evaluated for their ability to be “multiplexed” with a GAPDH amplification reaction. After isolation the RNA is subjected to sequential reverse transcriptase (RT) reaction and real-time PCR, both of which are performed in the same well. RT and PCR reagents were obtained from Invitrogen Life Technologies (Carlsbad, Calif.). […] The RT reaction was carried out by incubation for 30 minutes at 48° C. Following a 10 minute incubation at 95° C. to activate the PLATINUM® Taq, 40 cycles of a two-step PCR protocol were carried out: 95° C. for 15 seconds (denaturation) followed by 60° C. for 1.5 minutes (annealing/extension).
Gene target quantities obtained by RT, real-time PCR were normalized using either the expression level of GAPDH, a gene whose expression is constant, or by quantifying total RNA using RiboGreen™ (Molecular Probes, Inc. Eugene, Oreg.). GAPDH expression was quantified by RT, real-time PCR, by being run simultaneously with the target, multiplexing, or separately. Total RNA was quantified using RiboGreen™ RNA quantification reagent (Molecular Probes, Inc. Eugene, Oreg.).
A series of oligomeric compounds was designed to target different regions of mouse glucose-6-phosphatase translocase, using published sequences cited in Table 1. All compounds in Table 22 are chimeric oligonucleotides (“gapmers”) 20 nucleotides in length, composed of a central “gap” region consisting of 10 2′-deoxynucleotides, which is flanked on both sides (5′ and 3′) by five-nucleotide “wings”. The wings are composed of 2′-O-(2-methoxyethyl) nucleotides, also known as 2′-MOE nucleotides. The internucleoside (backbone) linkages are phosphorothioate throughout the oligonucleotide. All cytidine residues are 5-methylcytidines. The compounds were analyzed for their effect on gene target mRNA levels by quantitative real-time PCR as described in other examples herein, using the following primer-probe set designed to hybridize to mouse glucose-6-phosphatase translocase: • forward primer: […]
For the substance “145690 (antisense e[5mC]*eT*e[5mC]*e[5mC]*eG*dA*d[5mC]*d[5mC]*dT*d[5mC]*dG*dA*dG*dG*dG*e[5mC]*eA*e[5mC]*eT*eG) [compound 145690]”, the “% Inhib of mouse glucose-6-phosphatase translocase mRNA levels” value (“% Inhib” below) was found to be 56%.

In the case of “145691 (antisense eT*eG*eT*e[5mC]*eT*dG*dA*d[5mC]*dA*dG*dG*dT*dA*dA*d[5mC]*e[5mC]*eA*eG*e[5mC]*eT) [compound 145691]”, the “% Inhib” value is 30%.

In the case of “145692 (antisense eG*e[5mC]*eT*eG*e[5mC]*d[5mC]*dA*dT*d[5mC]*d[5mC]*d[5mC]*dA*dG*d[5mC]*d[5mC]*eA*eT*e[5mC]*eA*eT) [compound 145692]”, the “% Inhib” value was 65%.

“145693 (eG*eG*eA*eA*eG*dA*dG*dA*dT*dA*d[5mC]*dG*dT*dG*dG*eA*eT*eG*e[5mC]*eT; antisense) [compound 145693]”: the “% Inhib” value amounted to 0%.

As for “145694 (eA*eG*eT*e[5mC]*eA*d[5mC]*dT*dG*dG*dT*d[5mC]*dA*d[5mC]*d[5mC]*dG*eT*eT*eA*e[5mC]*eT; antisense) [compound 145694]”, the “% Inhib” value amounted to 23%.

With “145695 (e[5mC]*eA*eA*eT*eG*dG*dG*dA*d[5mC]*d[5mC]*dA*dT*dA*dA*dG*eA*eA*eG*eA*eG; antisense) [compound 145695]”, the “% Inhib” value is reported as 24%.

Take “145696 (e[5mC]*eT*e[5mC]*e[5mC]*eA*dA*dA*d[5mC]*dA*dA*dG*dG*d[5mC]*dA*dA*eT*eG*eG*eG*eA; antisense) [compound 145696]”: the “% Inhib” value was 37%.

As for “145697 (eT*eG*eG*e[5mC]*eT*dA*dT*dG*dA*d[5mC]*dT*d[5mC]*d[5mC]*dA*dA*eA*e[5mC]*eA*eA*eG; antisense) [compound 145697]”, the “% Inhib” value turned out to be 45%.

For “145698 (e[5mC]*e[5mC]*eA*e[5mC]*eA*dA*dT*dA*dG*d[5mC]*dA*dT*dG*dA*dG*eA*eG*eG*eT*eT; antisense) [compound 145698]”, the “% Inhib” value is given as 33%.

In the case of “145699 (eT*e[5mC]*e[5mC]*eA*e[5mC]*d[5mC]*d[5mC]*dA*d[5mC]*dA*dT*dT*dG*dG*d[5mC]*e[5mC]*eA*eT*eA*eA; antisense) [compound 145699]”, the “% Inhib” value turned out to be 41%.

For “145701 (eA*eG*eT*eG*e[5mC]*dT*dT*dG*dG*d[5mC]*dA*dA*dT*dG*dG*eT*eG*e[5mC]*eT*eG; antisense) [compound 145701]”, the “% Inhib” value stood at 54%.

As for “145703 (eA*e[5mC]*e[5mC]*eA*e[5mC]*dT*dT*d[5mC]*dT*dG*d[5mC]*d[5mC]*dA*d[5mC]*d[5mC]*e[5mC]*eA*eG*eA*eA; antisense) [compound 145703]”, the “% Inhib” value is 42%.

As for “145704 (eG*e[5mC]*eT*eG*eG*d[5mC]*dT*d[5mC]*d[5mC]*dA*d[5mC]*dA*dA*dA*d[5mC]*e[5mC]*eA*e[5mC]*eT*eT; antisense) [compound 145704]”, the “% Inhib” value is given as 54%.

Regarding “145705 (e[5mC]*eT*eT*eG*eG*dT*dG*d[5mC]*dG*dG*dA*dT*dA*dT*dT*eT*e[5mC]*eG*eA*eA; antisense) [compound 145705]”, the “% Inhib” value is 49%.

Regarding “145707 (eT*eG*eG*eA*eT*dA*d[5mC]*dT*d[5mC]*dG*dG*d[5mC]*d[5mC]*d[5mC]*dA*eT*e[5mC]*eT*eT*eG; antisense) [compound 145707]”, the “% Inhib” value amounted to 56%.

Turning to “145708 (eG*eG*eA*e[5mC]*eT*d[5mC]*dG*dA*dT*dT*d[5mC]*dA*d[5mC]*dT*d[5mC]*eT*e[5mC]*e[5mC]*e[5mC]*eT; antisense) [compound 145708]”, the “% Inhib” value amounted to 48%.

With “145709 (eG*eG*eG*eA*eT*dG*d[5mC]*dT*d[5mC]*d[5mC]*dA*dT*dA*dG*d[5mC]*eG*eA*eG*eG*eA; antisense) [compound 145709]”, the “% Inhib” value turned out to be 14%.

“145710 (e[5mC]*e[5mC]*eT*eG*e[5mC]*d[5mC]*dA*dG*dT*dA*dA*dG*dG*d[5mC]*dT*eG*e[5mC]*eA*eG*eT; antisense) [compound 145710]”: the “% Inhib” value came to 13%.

For “145711 (eG*eA*eG*eA*eG*dA*d[5mC]*dA*dG*dT*dG*dG*dA*dG*dA*e[5mC]*eA*e[5mC]*eA*eG; antisense) [compound 145711]”, the “% Inhib” value was found to be 33%.

Turning to “145712 (eT*eG*eG*eA*eG*dG*dT*dT*d[5mC]*dA*dG*dA*dG*dA*dG*eA*e[5mC]*eA*eG*eT; antisense) [compound 145712]”, the “% Inhib” value is listed as 42%.

Take “145713 (eG*eT*eA*eA*e[5mC]*dT*dT*dG*d[5mC]*dA*dG*d[5mC]*dA*d[5mC]*d[5mC]*eA*eT*eG*eG*eA; antisense) [compound 145713]”: the “% Inhib” value was 63%.

As to “145714 (eG*e[5mC]*e[5mC]*eA*e[5mC]*dT*dG*dG*dT*dA*dA*d[5mC]*dT*dT*dG*e[5mC]*eA*eG*e[5mC]*eA; antisense) [compound 145714]”, the “% Inhib” value came to 66%.

For the substance “145715 (eA*eG*eG*eA*eG*dT*dT*dG*d[5mC]*d[5mC]*dT*dG*dT*d[5mC]*dT*eG*e[5mC]*e[5mC]*eA*eG; antisense) [compound 145715]”, the “% Inhib” value is 50%.

In the case of “145716 (e[5mC]*e[5mC]*e[5mC]*eT*eG*dA*dA*dT*dT*d[5mC]*dA*dG*dG*dA*dG*eT*eT*eG*e[5mC]*e[5mC]; antisense) [compound 145716]”, the “% Inhib” value worked out at 52%.

As to “145717 (eT*eA*e[5mC]*eT*e[5mC]*dA*d[5mC]*dT*dA*dG*dG*dA*dG*dA*dT*e[5mC]*eA*eG*eG*eA; antisense) [compound 145717]”, the “% Inhib” value was 52%.

Consider “145718 (e[5mC]*eA*eA*eT*eT*dT*dT*dG*d[5mC]*d[5mC]*d[5mC]*d[5mC]*d[5mC]*dT*dG*e[5mC]*e[5mC]*eA*eA*eG; antisense) [compound 145718]”, for which the “% Inhib” value turned out to be 26%.

Turning to “145719 (eG*eA*eG*eT*eG*dG*dT*dG*dG*dA*d[5mC]*dT*d[5mC]*d[5mC]*dT*e[5mC]*eT*e[5mC]*e[5mC]*eT; antisense) [compound 145719]”, the “% Inhib” value was found to be 47%.

In the case of “145720 (TCAAATCTAGCTTTATTCGA; 2'-MOE wings and deoxy gap, wing lengths and linkages not given here) [compound 145720]”, the “% Inhib” value is recorded as 11%.

For the substance “145721 (eG*eG*e[5mC]*eT*eG*dT*dG*dG*dG*dT*d[5mC]*d[5mC]*d[5mC]*d[5mC]*dG*eA*eA*e[5mC]*eG*eA; antisense) [compound 145721]”, the “% Inhib” value is reported as 0%.

For “145722 (e[5mC]*eA*eG*eT*eG*dT*d[5mC]*d[5mC]*d[5mC]*dT*dG*d[5mC]*dG*dA*d[5mC]*eA*eT*e[5mC]*eA*eG; antisense) [compound 145722]”, the “% Inhib” value is reported as 8%.

For the substance “145723 (eG*e[5mC]*e[5mC]*eG*e[5mC]*d[5mC]*dT*dT*d[5mC]*dT*dG*dG*dA*d[5mC]*dA*eA*eT*e[5mC]*eA*eT; antisense) [compound 145723]”, the “% Inhib” value is given as 0%.

As to “145724 (eG*eG*e[5mC]*eT*e[5mC]*dT*dT*dT*dA*dT*dA*dG*d[5mC]*d[5mC]*dG*e[5mC]*e[5mC]*eT*eT*e[5mC]; antisense) [compound 145724]”, the “% Inhib” value amounted to 0%.
